Experiments:
[1] = tested on: E. coli S30 extract (bacterial protein synthesis); test: E. coli S30 extract coupled transcription-translation luciferase assay (inhibition of bacterial protein synthesis); type: biochemical; conditions: class by IC50 or % inhibition @ 1 μM, read-out: S30 IC50 (μM/% inhib.)
Method: E. coli S30 extract: Inhibition of bacterial protein synthesis was determined using the E. coli S30 Extract System for Circular DNA (Promega catalog #L-2010) and Luciferase Assay Reagent (Promega catalog #E1500) with slight modifications to a published protocol. Fyfe, C., Sutcliffe, J. A. and Grossman, T. H. (2012) “Development and characterization of a Pseudomonas aeruginosa in vitro coupled transcription-translation assay system for evaluation of translation inhibitors” J. Microbiol. Methods 90(3), 256-261.
Compounds were serial diluted in 0.5 mL microcentrifuge tubes by mixing and transferring 50 μL from the highest concentration to 50 μL of water, mixing and transferring 50 μL of this 2-fold dilution to 50 μL of water. This mixing and transferring was repeated so that there are a total of 8 tubes with serial dilutions of compound at 10× the desired screening concentration that are ultimately diluted to 1× by the addition of S30 luciferase synthesis mixture. Serial dilutions of compounds were added (2 μL) to wells in a black round bottom 96-well plate. Water (2 μL) was used as a “no inhibitor” control in 4 wells/plate. No DNA control reaction mixture (20 μL; see below) was used as a control in 4 wells/plate for background luminescence. S30 luciferase synthesis mixture (18 μL; see below) was added to wells with compounds or water mixture and incubated at 37° C. for 1 hour. Reactions were stopped by transferring to 4° C. refrigerator for 5 minutes then 25 μL of luciferase activity mix was added. Luminescence was measured using a BioTek Synergy HTX plate reader. % Inhibition was determined relative to no inhibitor controls. • S30 luciferase synthesis mixture: • 445 μL S30 extract, circular • 712 μL S30 Premix without amino acids • 4.45 μL pBESTluc™ DNA (1 μg/μL) • 78 μL complete amino acid mixture • 267 μL water • No DNA control: • 20 μL S30 extract, circular • 32 μL S30 Premix without amino acids • 7 μL complete amino acid mixture • 21 μL water Rabbit Reticulocyte lysate

[2] = biological target: Rabbit Reticulocyte Lysate (eukaryotic protein synthesis); test: Rabbit reticulocyte lysate luciferase assay (inhibition of eukaryotic protein synthesis); type: biochemical; conditions: class by IC50 or % inhibition @ 1 μM, read-out: Rabbit reticulocyte IC50 (μM/% inhib.)
Method: Inhibition of eukaryotic protein synthesis was determined using the Rabbit Reticulocyte Lysate System, Nuclease-Treated from Promega (catalog #L-4960) with slight modifications to the manufacturer's protocol. Compounds were serial diluted in 0.5 mL microcentrifuge tubes by mixing and transferring 50 μL from the highest concentration to 50 μL of water, mixing and transferring 50 μL of this 2-fold dilution to 50 μL of water. This mixing and transferring was repeated so that there are a total of 8 tubes with serial dilutions of compound at 10× the desired screening concentration that are ultimately diluted to 1× by the addition of rabbit reticulocyte luciferase synthesis mixture. Serial dilutions of compounds were added (2.5 μL) to wells in a black round bottom 96-well plate. Water (2.5 μL) was used as a “no inhibitor” control in 4 wells/plate. No RNA control reaction mixture (2 μL; see below) was used as a control in 4 wells/plate for background luminescence. Rabbit reticulocyte luciferase synthesis mixture (22.5 μL; see below) was added to wells with compounds or water mixture and incubated at 30° C. for 90 minutes. Luciferase assay reagent (25 μL) was added with luminescence measured using a BioTek Synergy HTX plate reader. % Inhibition was determined relative to no inhibitor controls.
Rabbit Reticulocyte Luciferase Synthesis Mixture:
• 1,000 μL rabbit reticulocyte lysate • 5.7 μL Luciferase Control RNA (1 μg/μL) • 26 μL complete amino acid mixture • 395 μL water • No RNA Control • 70 μL rabbit reticulocyte lysate • 2 μL complete amino acid mixture • 28 μL water Minimum Inhibitory Concentration (MIC)

E. coli (Ec) = test: Broth microdilution minimum inhibitory concentration (MIC), CLSI; type: cell-based; conditions: growth medium supplemented with sodium bicarbonate; for MIC: Escherichia coli, read-out: E. coli + bicarb MIC
Method: (§1) A certified BSL-2 laboratory was used for testing. Compounds were evaluated using the broth microdilution minimum inhibitory concentration (MIC) and minimum bactericidal concentration (MBC) assays defined by Clinical and Laboratory Standards Institute (CLSI) in the M26-A guideline against S. aureus (Sa), E. coli (Ec), K. pneumoniae (Kp), A. baumannn (Ab), E. faecalis (Ef) and P. aeruginosa (Pa).
(§2) MICs were determined using the Clinical Laboratory and Standards Institute (CLSI) Broth Microdilution Method with slight modification. Clinical and Laboratory Standards Institute (2012). “Methods for dilution antimicrobial susceptibility tests for bacteria that grow aerobically; approved standard, 9th ed. M07-A9 Clinical and Laboratory Standards Institute, Wayne, PA” Serial two-fold dilutions of compounds are prepared in sterile clear round-bottom 96-well plates.
(§3) To prepare microdilution trays, two-fold dilutions of antimicrobial agent are prepared in growth medium: Cation-Adjusted Mueller-Hinton Broth (CAMHB), or CAMHB supplemented with sodium bicarbonate (6.25 or 25 mM final concentration prepared from a 1.0M stock solution) or CAMHB supplemented with heat inactivated human serum (Fisher Cat. #BP2657100) 0-50% by adding 200 µL of the highest concentration to be tested (64 μg/mL, for example) in row A, mixing and transferring 100 μL from row A to 100 μL growth medium in row B, then repeating the mixing and transferring through row H of the 96-well plate, discarding the excess […] remaining. This slight modification to the CLSI protocol enables evaluation of MICs for 3 compounds per plate in triplicate, albeit with only 8 compound dilutions (CLSI protocol enables 2 compounds in triplicate with 10 dilutions). Bacterial suspensions are added to a final concentration of 5×10^4 CFU/well by adding 5 μL of a 1:10 dilution of a 0.5 McFarland suspension (1×10^8 CFU/mL) for each bacterium evaluated. Bacterial suspensions were prepared using the growth method described by CLSI. Well-isolated colonies (3-5 from an agar plate) were selected using a sterile loop and used to inoculate a tube containing 4 mL of CAMHB. The cultures are incubated at 35±2° C. until it achieves or exceeds the turbidity of the 0.5 McFarland standard, determined by measuring A600 (usually two to six hours). When growth exceeds a 0.5 McFarland standard, the turbidity is adjusted with broth to be equivalent to a 0.5 McFarland standard.

P. aeruginosa (Pa) = test: as above; type: cell-based; conditions: Pseudomonas aeruginosa, growth medium supplemented with sodium bicarbonate, read-out: Pa MIC + bicarb
Method: as §1, §2, §3

A. baumannn (Ab) = test: as above; type: cell-based; conditions: Acinetobacter baumannii, read-out: Ab + bicarb MIC
Method: as §1, §2, §3

E. faecalis (Ef) = test: as above; type: cell-based; conditions: Enterococcus faecalis, growth medium supplemented with sodium bicarbonate, read-out: Ef + bicarb MIC
Method: as §1, §2, §3

| Compound | IC50 [1] [µM] | IC50 [2] [µM] | MIC (E. coli (Ec)) [µg/mL] | E. coli + bicarb MIC (E. coli (Ec)) | MIC (P. aeruginosa (Pa)) [µg/mL] | MIC (A. baumannn (Ab)) [µg/mL] | MIC (E. faecalis (Ef)) [µg/mL] |
| --- | --- | --- | --- | --- | --- | --- | --- |
| Cc1cc(-n2ccc(NC(=O)N3CCN(C(=O)C(C)(C)N)CC3)nc2=O)ccc1CN1C[C@@H]2[C@@H](N)[C@@H]2C1 [Compound 2] | < 0.5 | ≥ 1 | < 8 | – | – | – | – |
| C[C@](N)(CF)C(=O)N1CCN(C(=O)Nc2ccn(-c3ccc(CN4C[C@@H]5[C@@H](N)[C@@H]5C4)cc3)c(=O)n2)CC1 [Compound 18] | < 0.5 | ≥ 1 | < 8 | – | – | – | – |
| NC[C@H]1[C@@H]2CCN(C(=O)Nc3ccn(-c4ccc(CN5C[C@@H]6[C@@H](N)[C@@H]6C5)cc4)c(=O)n3)C[C@H]12 [Compound 50] | ≥ 1 | ≥ 1 | – | +++ (An MIC value (μg/mL) that is less than 8 μg/mL) | – | – | – |
| CC(C)(N)C(=O)N1CCN(C(=O)Nc2ccn(-c3ccc(CN4C[C@@H]5[C@@H](N)[C@@H]5C4)c(Cl)c3)c(=O)n2)CC1 [Compound 7] | < 0.5 | ≥ 1 | < 8 | – | > 32 | – | – |
| CC(C)(N)C(=O)N1CCN(C(=O)Nc2ccn(-c3ccc(CN4CC[C@H]5NCC[C@H]5C4)cc3)c(=O)n2)CC1 [Compound 77] | < 0.5 | ≥ 1 | < 8 | – | – | – | – |
| CC(C)(N)C(=O)N1CCN(C(=O)Nc2ccn(-c3ccc(CN4C[C@H](N)C5(CC5)C4)cc3)c(=O)n2)CC1 [Compound 16] | ≥ 1 | ≥ 1 | 8 to 32 | – | – | – | – |
| CC(C)(N)C(=O)N1CCN(C(=O)Nc2ccn(-c3ccc(CN4CC[C@@H]5[C@@H](CN)[C@@H]5C4)cc3)c(=O)n2)CC1 [Compound 72] | < 0.5 | ≥ 1 | < 8 | – | – | – | – |
| C[C@@H]1CN(C(=O)Nc2ccn(-c3ccc(CN4C[C@@H]5[C@@H](N)[C@@H]5C4)cc3)c(=O)n2)CCN1C(=O)C(C)(C)N [Compound 31] | < 0.5 | ≥ 1 | < 8 | – | > 32 | – | – |
| C[C@@H]1CN(C(=O)[C@@](C)(N)CO)CCN1C(=O)Nc1ccn(-c2ccc(CN3C[C@@H]4[C@@H](N)[C@@H]4C3)cc2)c(=O)n1 [Compound 35] | < 0.5 | ≥ 1 | – | – | – | > 32 | 8 to 32 |
| CC(C)(N)C(=O)N1CCN(C(=O)Nc2ccn(-c3ccc(CN4C[C@@H](N)C5(CC5)C4)cc3)c(=O)n2)CC1 [Compound 19] | 0.5 to 1 | ≥ 1 | < 8 | – | – | – | – |
| N[C@@H]1[C@H]2CN(Cc3ccc(-n4ccc(NC(=O)N5CCC(C6OCCC[C@@H]6N)CC5)nc4=O)cc3)C[C@@H]12 (some centres unmarked) [Compound 52] | ≥ 1 | ≥ 1 | < 8 | – | – | – | – |
| CC(C)(N)C(=O)N1CCN(C(=O)Nc2ccn(-c3ccc(CN4CCC5(CCNCC5)CC4)cc3)c(=O)n2)CC1 [Compound 82] | < 0.5 | ≥ 1 | < 8 | – | – | – | – |
| CC(C)(N)C(=O)N1CCN(C(=O)Nc2ccn(-c3ccc(CN4CCC5(CC5N)C4)cc3)c(=O)n2)CC1 (centres unmarked) [Compound 21] | < 0.5 | ≥ 1 | < 8 | – | – | – | – |
| CC(C)(N)CN1CCN(C(=O)Nc2ccn(-c3ccc(CN4C[C@@H]5[C@@H](N)[C@@H]5C4)cc3)c(=O)n2)CC1 [Compound 24] | 0.5 to 1 | ≥ 1 | < 8 | – | – | – | – |
| CC(C)(N)C(=O)N1CCN(C(=O)Nc2ccn(-c3ccc(CN4CC5CC5(CN)C4)cc3)c(=O)n2)CC1 (centres unmarked) [Compound 71] | < 0.5 | ≥ 1 | < 8 | – | – | – | – |
| C[C@](N)(CO)C(=O)N1CCN(C(=O)Nc2ccn(-c3ccc(CN4CCC5(CC4)CC(N)C5)cc3)c(=O)n2)CC1 [Compound 37] | < 0.5 | ≥ 1 | < 8 | – | 8 to 32 | – | – |
| C[C@](N)(CO)C(=O)N1CCN(C(=O)Nc2ccn(-c3ccc(CN4C[C@@H]5[C@@H](CN)[C@@H]5C4)cc3)c(=O)n2)CC1 [Compound 69] | < 0.5 | ≥ 1 | < 8 | – | – | – | – |
| CC(C)(N)CN1CCN(C(=O)Nc2ccn(-c3ccc(CN4C[C@@H]5[C@@H](N)[C@@H]5C4)cc3)c(=O)n2)CC1=O [Compound 47] | 0.5 to 1 | ≥ 1 | 8 to 32 | – | – | – | – |
| CC(C)(N)C(=O)N1CCN(C(=O)Nc2ccn(-c3ccc(CCN4CCC5(CC4)CC(N)C5)cc3)c(=O)n2)CC1 [Compound 91] | < 0.5 | ≥ 1 | < 8 | – | < 8 | – | – |
| NC[C@H]1[C@@H]2CCN(C(=O)Nc3ccn(-c4ccc(CN5C[C@@H]6[C@@H](N)[C@@H]6C5)cc4)c(=O)n3)C[C@H]12 [Compound 51] | ≥ 1 | ≥ 1 | – | + (An MIC (μg/mL) value that is 32 μg/mL or greater) | – | – | – |
| CC(C)(N)C(=O)N1CCN(C(=O)Nc2ccn(-c3ccc(CN4CCC5(CC4)CC5N)cc3)c(=O)n2)CC1 (centres unmarked) [Compound 39] | < 0.5 | ≥ 1 | < 8 | – | – | – | – |
| C[C@H]1CN(C(=O)C(C)(C)N)CCN1C(=O)Nc1ccn(-c2ccc(CN3C[C@@H]4[C@@H](N)[C@@H]4C3)cc2)c(=O)n1 [Compound 17] | < 0.5 | ≥ 1 | < 8 | – | > 32 | – | – |
| CC(C)(N)C(=O)N1CCN(C(=O)Nc2ccn(-c3ccc(CN4C[C@H]5CNC[C@H]5C4)cc3)c(=O)n2)CC1 [Compound 76] | < 0.5 | ≥ 1 | < 8 | – | – | – | – |
| CC(N)(C(=O)N1CCN(C(=O)Nc2ccn(-c3ccc(CN4C[C@@H]5[C@@H](N)[C@@H]5C4)cc3)c(=O)n2)CC1)C(F)(F)F (some centres unmarked) [Compound 15] | ≥ 1 | – | > 32 | – | – | – | – |

— US12692253B2, “Antimicrobial compounds and methods” (Curza Global, LLC, priority 2019, dated 2026)
